This note sets out measurements from article PMC6487500 (Molecular imaging and biology : MIB : the official …, 2019).

Data set [1] has as its system BT474 cells. As to the kind of experiment: Cell binding assay and specific binding. To be noted: at 60 min. On the set-up: species or system human.
The subject of data set [2] is BT474 xenografts. Kind of data set: Tissue distribution in mice bearing BT474 xenografts. To be noted: BT474 xenograft mice, n = 5. The data set is classed as in vivo, mouse.
The mark [3] stands for this setting: 100 ± 20 μCi i.v., after PET/CT at 1 h.

Turning to `[68Ga+3].[Cl-].[Cl-].[Cl-]` [[^68Ga]GaCl3], in data set [1], the “specific BT474 cell binding” value came to 18.8 ± 2.5%. In addition, in data set [2] (setting [3]), the “tissue distribution, contralateral muscle” value is given as 1.2 ± 0.4 %ID/g; the “tissue distribution, liver” value was found to be 4.3 ± 1.3 %ID/g; the “tissue distribution, tumor uptake” value was 2.2 ± 1.7 %ID/g. In data set [2] (100 ± 20 μCi i.v., at 1 h), the “tissue distribution, lungs” value turned out to be 4.2 ± 2.6 %ID/g. For the same compound, the “T/M ratio, tissue distribution” value in data set [2] (non-blocked, after PET/CT at 1 h) was found to be 1.7 ± 0.8.
